Tests used:
ovarian cancer = conditions: clinical studies, phase as stated; cited from earlier work
HLA-A*02:01 = HLA-A*02:01 (Homo sapiens, UniProt P04439, D140Y/D185E/D98H/E176V/E277Q/G131W/G231S/I119V/I121R/I166T/I218V/L300P/L318F/N151K/N90K/P208A/P217A/Q86G/Q94H/R138H/R169H/T345S); assay: MHC binding assay (UV-ligand exchange, β2m ELISA, peptide exchange yield); conditions: MHC class I binding score; binding to HLA-A*02:01 ranged by peptide exchange yield (UV-ligand exchange, β2m ELISA)
How it was run: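 Peptide–HLA-A*02:01 complexes were formed by UV-mediated exchange of a UV-cleavable ligand for the test peptide. Exchange yield was measured by capturing complexes on streptavidin, detecting with HRP anti-β2m antibody (1 h, 37°C) and reading TMB absorbance at 450 nm.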

CD8+ T cells = assay: In vitro T-cell priming (immunogenicity) with aAPCs loaded with peptide/MHC and anti-CD28, pMHC multimer readout; assay type: cell-based, human; conditions: for Wells positive [%]: in vitro immunogenicity, HLA-A*02 restricted peptides, positive wells among evaluable
From the text: In order to obtain information regarding the immunogenicity of the TUMAPs of the present invention, the inventors performed investigations using an in vitro T-cell priming assay based on repeated stimulations of CD8+ T cells with artificial antigen presenting cells (aAPCs) loaded with peptide/MHC complexes and anti-CD28 antibody.
In order to perform in vitro stimulations by artificial antigen presenting cells loaded with peptide-MHC complex (pMHC) and anti-CD28 antibody, the inventors first isolated CD8+ T cells from fresh HLA-A*02 leukapheresis products via positive selection using CD8 microbeads (Miltenyi Biotec, Bergisch-Gladbach, Germany) of healthy donors obtained from the University clinics Mannheim, Germany, after informed consent.
PBMCs and isolated CD8+ lymphocytes were incubated in T-cell medium (TCM) until use consisting of RPMI-Glutamax (Invitrogen, Karlsruhe, Germany) supplemented with 10% heat inactivated human AB serum (PAN-Biotech, Aidenbach, Germany), 100 U/ml Penicillin/100 μg/ml Streptomycin (Cambrex, Cologne, Germany), 1 mM sodium pyruvate (CC Pro, Oberdorla, Germany), 20 μg/ml Gentamycin (Cambrex). 2.5 ng/ml IL-7 (PromoCell, Heidelberg, Germany) and 10 U/ml IL-2 (Novartis Pharma, Nürnberg, Germany) were also added to the TCM at this step.
Generation of pMHC/anti-CD28 coated beads, T-cell stimulations and readout was performed in a highly defined in vitro system using four different pMHC molecules per stimulation condition and 8 different pMHC molecules per readout condition.
The purified co-stimulatory mouse IgG2a anti human CD28 Ab 9.3 (Jung et al., 1987) was chemically biotinylated using Sulfo-N-hydroxysuccinimidobiotin as recommended by the manufacturer (Perbio, Bonn, Germany). Beads used were 5.6 μm diameter streptavidin coated polystyrene particles (Bangs Laboratories, Illinois, USA).
pMHC used for positive and negative control stimulations were A*0201/MLA-001 (peptide […] (SEQ ID NO. 664) from modified Melan-A/MART-1) and A*0201/DDX5-001 ([…] from DDX5, SEQ ID NO. 665), respectively.
800.000 beads/200 μl were coated in 96-well plates in the presence of 4×12.5 ng different biotin-pMHC, washed and 600 ng biotin anti-CD28 were added subsequently in a volume of 200 μl. Stimulations were initiated in 96-well plates by co-incubating 1×10^6 CD8+ T cells with 2×10^5 washed coated beads in 200 μl TCM supplemented with 5 ng/ml IL-12 (PromoCell) for 3 days at 37° C. Half of the medium was then exchanged by fresh TCM supplemented with 80 U/ml IL-2 and incubating was continued for 4 days at 37° C. This stimulation cycle was performed for a total of three times. For the pMHC multimer readout using 8 different pMHC molecules per condition, a two-dimensional combinatorial coding approach was used as previously described (Andersen et al., 2012) with minor modifications encompassing coupling to 5 different fluorochromes. Finally, multimeric analyses were performed by staining the cells with Live/dead near IR dye (Invitrogen, Karlsruhe, Germany), CD8-FITC antibody clone SK1 (BD, Heidelberg, Germany) and fluorescent pMHC multimers. For analysis, a BD LSRII SORP cytometer equipped with appropriate lasers and filters was used. Peptide specific cells were calculated as percentage of total CD8+ cells. Evaluation of multimeric analysis was done using the FlowJo software (Tree Star, Oregon, USA). In vitro priming of specific multimer+CD8+ lymphocytes was detected by comparing to negative control stimulations.
Exemplary flow cytometry results after TUMAP-specific multimer staining for two peptides of the invention are shown in FIG. 3 together with corresponding negative controls.

Row | Substance | clinical effect in ovarian cancer patients (ovarian cancer) | Peptide exchange (HLA-A*02:01) | Wells positive [%] (CD8+ T cells) | donors (CD8+ T cells; in vitro immunogenicity of HLA class I peptides, percentage of positive donors) | wells (CD8+ T cells; in vitro immunogenicity of HLA class I peptides, percentage of positive wells)
1 | MORAb-003: anti-folate receptor alpha antibody | limited clinical benefit | – | – | – | –
2 | Ipilimumab: anti-CTLA4 antibody, which enhances T cell activity | significant anti-tumor effects | – | – | – | –
3 | 499 (KIFDIDEAEEGV; listed as Homo sapiens) [compound 499] | – | ″++″ (≧20% = ++) | ″+″ (<20% = +) | – | –
4 | 157 (SLNDEVPEV; listed as Homo sapiens) [compound 157] | – | ″++″ (≧20% = ++) | ″+++″ (50%-69% = +++) | – | –
5 | 242 (AIAYILQGV; listed as Homo sapiens) [compound 242] | – | ″++″ (≧20% = ++) | ″+++″ (50%-69% = +++) | – | –
6 | 113 (GLLPTPLFGV; listed as Homo sapiens) [compound 113] | – | ″+++″ (≧50% = +++) | ″+″ (<20% = +) | – | –
7 | 191 (LLQEGQALEYV; listed as Homo sapiens) [compound 191] | – | ″++″ (≧20% = ++) | ″+++″ (50%-69% = +++) | – | –
8 | 141 (YLDFSNNRL; listed as Homo sapiens) [compound 141] | – | ″++″ (≧20% = ++) | ″+″ (<20% = +) | – | –
9 | 152 (ILFEDIFDV; listed as Homo sapiens) [compound 152] | – | ″+++″ (≧50% = +++) | ″++″ (20%-49% = ++) | – | –
10 | 36 (YVLEDLEVTV; listed as Homo sapiens) [compound 36] | – | ″++″ (≧20% = ++) | ″+″ (<20% = +) | – | –
11 | 443 (GLWEIENNPTV; listed as Homo sapiens) [compound 443] | – | ″+++″ (≧50% = +++) | ″+″ (<20% = +) | – | –
12 | 7 (SLVGLLLYL; listed as Homo sapiens) [compound 7] | – | ″++++″ (≧75% = ++++) | ″++″ (20%-49% = ++) | – | –
13 | catumaxomab | promising results | – | – | – | –
14 | 446 (QLIPALAKV; listed as Homo sapiens) [compound 446] | – | ″+++″ (≧50% = +++) | ″++″ (20%-49% = ++) | – | –
15 | 2 (SLLEADPFL; listed as Homo sapiens) [compound 2] | – | ″+++″ (≧50% = +++) | ″+″ (<20% = +) | – | –
16 | bevacizumab: anti-VEGF antibody | appears to be advantageous | – | – | – | –
17 | 199 (ALQDVPLSSV; listed as Homo sapiens) [compound 199] | – | ″+++″ (≧50% = +++) | ″+″ (<20% = +) | – | –
18 | 518 (KLNAEVACV; listed as Homo sapiens) [compound 518] | – | ″+++″ (≧50% = +++) | ″++″ (20%-49% = ++) | – | –
19 | 384 (ILFANPNIFV; listed as Homo sapiens) [compound 384] | – | ″+++″ (≧50% = +++) | ″+″ (<20% = +) | – | –
20 | 283 (ALYIGDGYVIHLA; listed as Homo sapiens) [compound 283] | – | ″+++″ (≧50% = +++) | – | +++ (50%-69% = +++) | + (<20% = +)
21 | 8 (FTLGNVVGMYL; listed as Homo sapiens) [compound 8] | – | ″++++″ (≧75% = ++++) | ″+″ (<20% = +) | – | –
22 | 56 (KLYEGIPVLL; listed as Homo sapiens) [compound 56] | – | ″++++″ (≧75% = ++++) | ″+″ (<20% = +) | – | –
23 | oregovomab | promising results | – | – | – | –
24 | 49 (YLPAVFEEV; listed as Homo sapiens) [compound 49] | – | ″+++″ (≧50% = +++) | ″++″ (20%-49% = ++) | – | –
25 | 247 (VLLPNDLLEKV; listed as Homo sapiens) [compound 247] | – | ″+++″ (≧50% = +++) | ″+″ (<20% = +) | – | –
26 | 454 (KLPPPPPQA; listed as Homo sapiens) [compound 454] | – | ″+++″ (≧50% = +++) | ″++″ (20%-49% = ++) | – | –

Source: patent publication US20170037111A1, “Novel peptides and combination of peptides for use in immunotherapy against ovarian cancer and other cancers” (immatics biotechnologies GmbH, priority 2015, published 2017)
